The conditions of data set [1]: cited from earlier work.
The nature of data set [2]: Solubility of paracetamol, HPLC analysis of supernatant after centrifugation. The data set is classed as physicochemical. The settings on record: stirred 2 hours at room temperature. The method, then:
The PEG400 was added to the paracetamol at room temperature. This mixture was then kept stirring at room temperature for 2 hours.
4 ml of the above-mentioned suspension were centrifuged in an Eppendorf tube at 25° C. for 30 minutes at a speed of 7,000 rpm.
The absolute ethanol was added to the paracetamol at room temperature. This mixture was then kept stirring at room temperature for 2 hours.
4 ml of the above-mentioned suspension were centrifuged in an Eppendorf tube at 4° C. for 40 minutes at a speed of 7,000 rpm.

This is an account of results in US6423749B1, “Pharmaceutical composition for injection based on paracetamol” (Aziende Chimiche Riunite Angelini Francesco A.C.R.A.F. …, priority 1998, dated 2002).

For `CC(=O)Nc1ccc(O)cc1` [paracetamol], in data set [1] (30% propylene glycol, 40% PEG400 and 30% water, 20° C., WO 98/05314), the “amount of paracetamol dissolved” value is “about 200 mg/ml”. The solubility in water result in data set [1] (water, The Merck Index, 12th edition) is “very slightly soluble”. Besides, the “solubility of the paracetamol” value in data set [2] (in PEG-400, centrifuged at 25° C. for 30 minutes) was 18-19%; in data set [2] (in absolute ethanol, centrifuged at 4° C. for 40 minutes), 9-10%.
